The values that follow come from ChEMBL document CHEMBL1129087, “Novel phosphotyrosine mimetics in the design of peptide ligands for pp60src SH2 domain” (Bioorg Med Chem Lett, 1996).

Bounds are passed on as bounds.

The target in experiment [1] is T1, Proto-oncogene tyrosine-protein kinase Src (Homo sapiens, UniProt P12931). As to the kind of experiment: Inhibition of src SH2 domain binding to PDGF receptor.
The target of experiment [2] is T1, Proto-oncogene tyrosine-protein kinase Src. The experiment can be described thus: Binding affinity to p60 src SH2 domain.
For experiment [3], the target named is Tyrosine-protein kinase ABL1 (Homo sapiens, UniProt P00519). The experiment can be described thus: Inhibition of Abl SH2 domain binding PDGF receptor.
Sequence of Tyrosine-protein kinase ABL1 (P00519 whole entry, the tested form may be a part): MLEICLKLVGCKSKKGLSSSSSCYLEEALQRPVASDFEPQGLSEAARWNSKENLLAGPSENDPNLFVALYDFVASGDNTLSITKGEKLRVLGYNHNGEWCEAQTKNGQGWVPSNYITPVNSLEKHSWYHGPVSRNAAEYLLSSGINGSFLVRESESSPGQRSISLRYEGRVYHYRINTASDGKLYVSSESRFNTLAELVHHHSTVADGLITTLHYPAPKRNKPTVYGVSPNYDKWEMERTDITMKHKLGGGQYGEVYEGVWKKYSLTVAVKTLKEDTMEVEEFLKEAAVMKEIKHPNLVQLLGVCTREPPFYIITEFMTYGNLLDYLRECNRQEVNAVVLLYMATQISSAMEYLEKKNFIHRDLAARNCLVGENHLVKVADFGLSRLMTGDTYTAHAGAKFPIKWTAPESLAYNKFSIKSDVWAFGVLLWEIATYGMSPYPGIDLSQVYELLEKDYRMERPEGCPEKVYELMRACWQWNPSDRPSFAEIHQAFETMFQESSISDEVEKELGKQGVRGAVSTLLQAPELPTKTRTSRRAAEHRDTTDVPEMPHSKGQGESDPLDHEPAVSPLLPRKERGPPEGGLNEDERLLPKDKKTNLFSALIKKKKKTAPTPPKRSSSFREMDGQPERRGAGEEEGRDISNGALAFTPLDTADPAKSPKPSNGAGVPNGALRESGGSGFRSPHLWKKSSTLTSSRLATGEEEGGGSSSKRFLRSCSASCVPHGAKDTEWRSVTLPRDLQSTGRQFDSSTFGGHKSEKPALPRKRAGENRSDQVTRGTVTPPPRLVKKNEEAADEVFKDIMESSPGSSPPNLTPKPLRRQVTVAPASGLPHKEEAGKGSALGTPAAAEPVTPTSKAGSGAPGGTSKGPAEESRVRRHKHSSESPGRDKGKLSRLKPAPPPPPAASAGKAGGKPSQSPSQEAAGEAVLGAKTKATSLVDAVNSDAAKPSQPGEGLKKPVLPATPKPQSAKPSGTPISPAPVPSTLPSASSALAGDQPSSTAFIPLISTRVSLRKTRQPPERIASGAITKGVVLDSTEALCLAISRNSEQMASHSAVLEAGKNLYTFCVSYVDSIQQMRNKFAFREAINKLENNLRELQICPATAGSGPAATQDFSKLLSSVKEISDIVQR
The nature of experiment [4]: Inhibition of PLC(C) SH2 domain binding to PDGF receptor.
Experiment [5] has as its target T2, Tyrosine-protein phosphatase non-receptor type 11 (Homo sapiens, UniProt Q06124).
T2 sequence (Q06124 whole entry): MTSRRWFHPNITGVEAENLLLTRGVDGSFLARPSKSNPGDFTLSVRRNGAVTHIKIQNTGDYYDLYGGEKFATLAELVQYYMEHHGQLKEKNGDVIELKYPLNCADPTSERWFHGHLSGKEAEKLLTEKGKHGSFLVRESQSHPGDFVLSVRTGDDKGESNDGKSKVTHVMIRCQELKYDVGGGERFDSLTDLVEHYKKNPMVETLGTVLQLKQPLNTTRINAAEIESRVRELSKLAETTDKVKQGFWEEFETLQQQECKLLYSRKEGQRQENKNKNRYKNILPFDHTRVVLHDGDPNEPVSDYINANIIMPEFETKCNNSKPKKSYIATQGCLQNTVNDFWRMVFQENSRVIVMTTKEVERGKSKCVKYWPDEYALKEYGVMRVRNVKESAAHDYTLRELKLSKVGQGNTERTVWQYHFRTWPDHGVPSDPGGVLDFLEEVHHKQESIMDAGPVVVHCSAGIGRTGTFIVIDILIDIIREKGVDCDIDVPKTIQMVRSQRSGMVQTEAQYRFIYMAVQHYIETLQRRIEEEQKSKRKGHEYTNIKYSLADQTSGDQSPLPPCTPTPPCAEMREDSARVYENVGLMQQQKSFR
As to the kind of experiment: Inhibition of Syp(N) SH2 domain block binding to PDGF receptor.

In experiment [6] the target is Growth factor receptor-bound protein 2 (Homo sapiens) (UniProt P62993). The experiment can be described thus: Inhibition of Grb2 SH2 domain binding to PDGF receptor 100 uM.
Sequence of Growth factor receptor-bound protein 2 (Homo sapiens) (P62993 whole entry, looked up, the tested form may be a part): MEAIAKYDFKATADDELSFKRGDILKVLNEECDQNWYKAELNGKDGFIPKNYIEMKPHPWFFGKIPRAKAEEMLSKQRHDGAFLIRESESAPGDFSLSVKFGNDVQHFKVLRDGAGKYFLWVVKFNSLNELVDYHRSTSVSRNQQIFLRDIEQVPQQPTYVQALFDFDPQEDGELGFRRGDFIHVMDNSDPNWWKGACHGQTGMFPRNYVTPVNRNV
Experiment [7] has the same target. As to the kind of experiment: Inhibition of Grb2 SH2 domain binding to PDGF receptor.

T1 sequence (P12931 2-536 limits assumed): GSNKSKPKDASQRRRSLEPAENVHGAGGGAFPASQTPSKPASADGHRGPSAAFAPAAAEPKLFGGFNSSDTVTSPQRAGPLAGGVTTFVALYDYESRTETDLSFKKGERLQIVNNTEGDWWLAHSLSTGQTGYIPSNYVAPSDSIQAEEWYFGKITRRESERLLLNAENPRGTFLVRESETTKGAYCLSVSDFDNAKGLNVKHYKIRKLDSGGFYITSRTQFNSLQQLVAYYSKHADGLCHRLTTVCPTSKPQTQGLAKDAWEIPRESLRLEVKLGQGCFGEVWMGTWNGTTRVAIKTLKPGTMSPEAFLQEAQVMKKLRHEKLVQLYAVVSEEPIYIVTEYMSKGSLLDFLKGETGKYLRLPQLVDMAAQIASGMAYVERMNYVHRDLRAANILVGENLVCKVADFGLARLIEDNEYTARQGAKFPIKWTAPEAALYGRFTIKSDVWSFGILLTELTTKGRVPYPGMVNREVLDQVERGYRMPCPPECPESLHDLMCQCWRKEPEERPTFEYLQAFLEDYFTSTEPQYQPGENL

In general, IC50 refers to the concentration at which inhibition is half-maximal. Higher therefore signals a need for much substance. For the compound `CC[C@H](C)[C@H](NC(=O)[C@H](CCC(=O)O)NC(=O)[C@H](CCC(=O)O)NC(=O)C(Cc1ccc(OP(=O)(O)O)cc1)c1ccccc1)C(=O)N[C@@H](CCC(=O)O)C(=O)O` (stereo in doubt) [listing 1 of 2 here], the IC50 in experiment [1] was 7.35 µM; in experiment [2], 1.9 µM; in experiment [3], above 100 µM; in experiment [4], above 100 µM; in experiment [5], above 100 µM.
Take `CC[C@H](C)[C@H](NC(=O)[C@H](CCC(=O)O)NC(=O)[C@H](CCC(=O)O)NC(=O)C(Cc1ccc(OP(=O)(O)O)cc1)c1cccc2ccccc12)C(=O)N[C@@H](CCC(=O)O)C(=O)O` (stereo in doubt; form 2): the IC50 in experiment [2] is 2.6 µM.
Same read-out and setting: the value for `CC[C@H](C)[C@H](NC(=O)[C@H](CCC(=O)O)NC(=O)[C@H](CCC(=O)O)NC(=O)[C@H](C)Cc1ccc(OP(=O)(O)O)cc1)C(=O)N[C@@H](CCC(=O)O)C(=O)O` was 20 µM; that for `NC(=O)[C@H](Cc1c[nH]c2ccccc12)NC(=O)C(CCC(=O)O)NC(=O)C(Cc1ccc(OP(=O)(O)O)cc1)c1cccc2ccccc12` (some centres not stated) was 30 µM; that for `CC[C@H](C)[C@H](NC(=O)[C@H](CCC(=O)O)NC(=O)[C@H](CCC(=O)O)NC(=O)CCc1ccc(OP(=O)(O)O)cc1)C(=O)N[C@@H](CCC(=O)O)C(=O)O` was 3.4 µM.
Still for that read-out and setting: then `NC(=O)[C@H](Cc1c[nH]c2ccccc12)NC(=O)C(CCC(=O)O)NC(=O)/C=C/c1ccc(OP(=O)(O)O)cc1` (some centres not stated), with 30 µM; and `Cc1cc(OP(=O)(O)O)cc(C)c1CCC(=O)NC(CCC(=O)O)C(=O)N[C@@H](Cc1c[nH]c2ccccc12)C(N)=O` (some centres not stated), with 30 µM; and `CC[C@H](C)[C@H](NC(=O)[C@H](CCC(=O)O)NC(=O)[C@H](CCC(=O)O)NC(=O)C(Cc1ccc(OP(=O)(O)O)cc1)c1ccccc1)C(=O)N[C@@H](CCC(=O)O)C(=O)O` (single isomer, unassigned; isomer 2), with 9.3 µM.
The same measure, in the same setting: then `NC(=O)[C@H](Cc1c[nH]c2ccccc12)NC(=O)C(CCC(=O)O)NC(=O)C(Cc1ccc(OP(=O)(O)O)cc1)c1ccccc1` (some centres not stated), with 28 µM; and `C[C@H](Cc1ccc(OP(=O)(O)O)cc1)C(=O)NC(CCC(=O)O)C(=O)N[C@@H](Cc1c[nH]c2ccccc12)C(N)=O` (some centres not stated), with 13.4 µM; and `CC[C@H](C)[C@H](NC(=O)[C@H](CCC(=O)O)NC(=O)[C@H](CCC(=O)O)NC(=O)/C=C/c1ccc(OP(=O)(O)O)cc1)C(=O)N[C@@H](CCC(=O)O)C(=O)O`, with 5.5 µM.
For `NC(=O)[C@H](Cc1c[nH]c2ccccc12)NC(=O)C(CCC(=O)O)NC(=O)CCc1ccc(OP(=O)(O)O)cc1` (some centres not stated), the IC50 in experiment [2] came out at 21.3 µM.
Compound `CC[C@H](C)[C@H](NC(=O)C(CCC(=O)O)NC(=O)C(CCC(=O)O)NC(=O)C(Cc1ccc(OP(=O)(O)O)cc1)c1cccc(O)c1)C(=O)N[C@@H](CCC(=O)O)C(=O)O` (single isomer, unassigned; isomer 1) came in with an IC50 in experiment [2] of 2.1 µM.
In experiment [2], `CC[C@H](C)[C@H](NC(=O)[C@H](CCC(=O)O)NC(=O)[C@H](CCC(=O)O)NC(=O)C(Cc1ccc(OP(=O)(O)O)cc1)c1ccc2ccccc2c1)C(=O)N[C@@H](CCC(=O)O)C(=O)O` (single isomer, unassigned; isomer 2) showed an IC50 of 4.5 µM.
For `NC(=O)[C@H](Cc1c[nH]c2ccccc12)NC(=O)C(CCC(=O)O)NC(=O)C(Cc1ccc(OP(=O)(O)O)cc1)c1ccc2ccccc2c1` (some centres not stated), the IC50 in experiment [2] turned out to be 40 µM.
Same read-out and setting: the value for `CC[C@H](C)[C@H](NC(=O)[C@H](CCC(=O)O)NC(=O)[C@H](CCC(=O)O)NC(=O)C(Cc1ccc(OP(=O)(O)O)cc1)c1ccc2ccccc2c1)C(=O)N[C@@H](CCC(=O)O)C(=O)O` (stereo in doubt) was 2.8 µM; that for `CC[C@H](C)[C@H](NC(=O)[C@H](CCC(=O)O)NC(=O)[C@H](CCC(=O)O)NC(=O)C(Cc1ccc(OP(=O)(O)O)cc1)c1cccc2ccccc12)C(=O)N[C@@H](CCC(=O)O)C(=O)O` (stereo in doubt; form 1) was 7.3 µM; that for `CC[C@H](C)[C@H](NC(=O)[C@H](CCC(=O)O)NC(=O)[C@H](CCC(=O)O)NC(=O)C(Cc1ccc(OP(=O)(O)O)cc1)c1ccccc1O)C(=O)N[C@@H](CCC(=O)O)C(=O)O` (some centres not stated) was 1.4 µM.
`CC(=O)N[C@@H](Cc1ccc(OP(=O)(O)O)cc1)C(=O)NC(CCC(=O)O)C(=O)N[C@@H](Cc1c[nH]c2ccccc12)C(N)=O` (some centres not stated): in experiment [2], the half-inhibitory concentration (IC50) worked out at 4 µM.
Still for that read-out and setting: then `CC[C@H](C)[C@H](NC(=O)C(CCC(=O)O)NC(=O)C(CCC(=O)O)NC(=O)C(Cc1ccc(OP(=O)(O)O)cc1)c1cccc(O)c1)C(=O)N[C@@H](CCC(=O)O)C(=O)O` (stereo in doubt), with 3.3 µM; and `CC[C@H](C)[C@H](NC(=O)[C@H](CCC(=O)O)NC(=O)[C@H](CCC(=O)O)NC(=O)[C@@H](CC(=O)O)Cc1ccc(OP(=O)(O)O)cc1)C(=O)N[C@@H](CCC(=O)O)C(=O)O`, with 0.35 µM.
As a reminder, the inhibition is the percentage by which the read-out fell short of the control. Turning to `CC[C@H](C)[C@H](NC(=O)[C@H](CCC(=O)O)NC(=O)[C@H](CCC(=O)O)NC(=O)[C@@H](Cc1ccc(OP(=O)(O)O)cc1)NC(C)=O)C(=O)N[C@@H](CCC(=O)O)C(=O)O`, the inhibition in experiment [6] stood at 45.2%. Besides, the IC50 in experiment [3] was 15.3 µM; in experiment [4], above 100 µM; in experiment [5], above 100 µM.
In the case of `CC[C@H](C)[C@H](NC(=O)[C@H](CCC(=O)O)NC(=O)[C@H](CCC(=O)O)NC(=O)CCc1c(C)cc(OP(=O)(O)O)cc1C)C(=O)N[C@@H](CCC(=O)O)C(=O)O`, the IC50 in experiment [2] worked out at 4.5 µM.
Same read-out and setting: then `CC[C@H](C)[C@H](NC(=O)[C@H](CCC(=O)O)NC(=O)[C@H](CCC(=O)O)NC(=O)/C(=C/c1ccc(OP(=O)(O)O)cc1)C(=O)O)C(=O)N[C@@H](CCC(=O)O)C(=O)O`, with 5 µM.
As to `CC[C@H](C)[C@H](NC(=O)[C@H](CCC(=O)O)NC(=O)[C@H](CCC(=O)O)NC(=O)C(Cc1ccc(OP(=O)(O)O)cc1)c1ccccc1)C(=O)N[C@@H](CCC(=O)O)C(=O)O` (stereo in doubt) [listing 2 of 2 here], the IC50 in experiment [7] is above 100 µM.
